The test system of series [1] is acid producing bacteria (APB). The series can be described thus: microbiological kill study in field water (bottle growth test), acid producing bacteria. It is filed as cell-based. Particulars: field water from a well in Texas; active biocide 94 to 500 ppm tested. On the procedure: (§1) Microbiological studies were carried out with the formulation of Example 1 and compared to tests with other known biocides. The field water used for testing came from a well in Texas. The biocides were tested at varying concentrations of the active biocide in the field water at active biocide concentrations from 94 parts per million (ppm) to 500 ppm. The biocide of Example 1 was tested along with several known biocides.
(§2) Microbiological kill studies were carried out in field waters considered to be problematic.
(§3) A field water sample was used to dilute the formulation and growth media was added. […] For the SRB concentrations up to 150 ppm PCMX were studied. […] For the APB samples, concentrations of up to 100 ppm PCMX were studied. […] The diluted sample was also tested after the sample had experienced four freeze/thaw cycles and the sample with growth media added was tested with PCMX concentrations up to 100 ppm PCMX.
(§4) For the 42 ppm hydrogen sulfide concentration water, testing was carried out with PCMX concentrations up to 100 ppm. […] For the 24 ppm hydrogen sulfide concentration water, testing was carried out with PCMX concentrations up to 125 ppm.

The subject of series [2] is sulfate reducing bacteria (SRB). The series can be described thus: microbiological kill study in field water (bottle growth test), sulfate reducing bacteria. It is filed as cell-based. Particulars: field water from a well in Texas; active biocide 94 to 500 ppm tested. On the procedure:
as §1, §2, §3, §4

For series [3] the following is noted: cited from earlier work.

On to `N#CC(Br)(Br)C(N)=O` [DBNPA, dibromocyanoacetamide], for which the “active biocide concentration with complete kill of APB” value (“active biocide concentration … of APB” below) in series [1] is on record as 20 ppm. The “active biocide concentration with complete kill of SRB” value (“active biocide concentration … of SRB” for short) in series [2] amounted to 20 ppm.

Turning to `CN1CSC(=S)N(C)C1` [Dazomet], in series [3], the hydrolysis half life is 3.6 h. Moreover, the “active biocide concentration … of APB” value in series [1] is above 270 ppm. For the same molecule, the “active biocide concentration … of SRB” value in series [2] is on record as above 270 ppm.

For the molecule “tetrakis hydroxylmethyl phosphonium sulfate [THPS]”, the “active biocide concentration … of APB” value in series [1] was determined as 150 ppm. Moreover, in series [2], the “active biocide concentration … of SRB” value was 150 ppm.

`O=CCCCC=O` [glutaraldehyde]: in series [1], the “active biocide concentration … of APB” value is 250 ppm. The “active biocide concentration … of SRB” value in series [2] was 250 ppm.

The record behind these values is US20130029884A1, “BIOCIDE FORMULATIONS” (ENVIROSYSTEMS, INC., priority 2011, published 2013).
